Measured values from patent publication US4009206A, “N-(substituted phenyl and benzyl)abietamides” (priority 1974, dated 1977).

Test system: cholesterol in blood
Experiment: Reduction of blood cholesterol in rats fed a 1% cholesterol / 0.25% sodium cholate diet
Format: in vivo, male rats
Settings: 3 days, control (cholesterol-administered) group = 0, normal group = 100, * 5%, ** 1% significance
Experimental: A completely synthetic diet containing 1% of cholesterol, 0.25% of sodium cholate and 0.0003%, 0.003%, and 0.03% of the test compound is given to a group of 6 male rats having a body weight of about 50 g consecutively for 3 days, and the rats are fasted overnight. Then, the rats are decapitated and blood is collected to determine the cholesterol concentration in blood. The concentration of cholesterol in blood is measured with Technicon Autoanalyzer(Technicon Laboratory: Method File N-24a) Obtained results are shown in Table 1.
Each value shown in the Table is a relative value determined based on the supposition that the value of the control group (the cholesterol-administered group) is 0 and the value of the normal group (the non-cholesterol-administered group) is 100.

Q: With CC(C)C1CCC2=C(CCC3C(C)(C(=O)NCc4ccc(Cl)cc4)CCCC23C)C1 (centres unmarked) [N-(4-chlorobenzyl)-Δ^8-dihydroabietamide] as the compound, how does the “% Inhibition (cholesterol in blood)” value (Dose in Diet 0.003%) read?
A: 9%

Q: And the “% Inhibition (cholesterol in blood)” value (Dose in Diet 0.03%)?
A: 30%

Q: For N-(m-bromophenyl)-dihydroabietamide, which “% Inhibition (cholesterol in blood)” value (Dose in Diet 0.0003%) is on record?
A: 7%

Q: And the “% Inhibition (cholesterol in blood)” value (Dose in Diet 0.003%)?
A: 23%

Q: And the “% Inhibition (cholesterol in blood)” value (Dose in Diet 0.03%)?
A: 60%

Q: What does the source list for Cc1cccc(C)c1NC(=O)C1(C)CCCC2(C)C3=C(CCC12)CC(C(C)C)CC3 (centres unmarked) [N-(2,6-dimethylphenyl)-Δ^8-dihydroabietamide]?
A: % Inhibition (cholesterol in blood) (Dose in Diet 0.0003%): 33%; % Inhibition (cholesterol in blood) (Dose in Diet 0.003%): 76%; % Inhibition (cholesterol in blood) (Dose in Diet 0.03%): 102%
